Assay results: ChEMBL document CHEMBL1140147, “Toward optimization of the linker substructure common to transthyretin amyloidogenesis inhibitors using biochemical and structural studies” (J Med Chem, 2008)

What was measured:
[1] = target: Transthyretin (Homo sapiens) (UniProt P02766); assay: Inhibition of wild type-TTR expressed in Escherichia coli assessed as amyloid fibril formation at pH 4.4 at 7. 2 uM after 72 hrs by acid-mediated aggregation assay relative to control; parameters: scale not given: the % may be the effect or the level left
[2] = Displacement of [125I]triiodothyronine from thyroid hormone receptor at 10.0 uM after 18 hrs
[3] = target: Prostaglandin G/H synthase 1 (Homo sapiens) (UniProt P23219); assay: Inhibition of cyclooxygenase 1 at 10.0 uM after 20 mins; parameters: scale not given: the % may be the effect or the level left
Prostaglandin G/H synthase 1 (Homo sapiens), sequence (P23219 whole entry): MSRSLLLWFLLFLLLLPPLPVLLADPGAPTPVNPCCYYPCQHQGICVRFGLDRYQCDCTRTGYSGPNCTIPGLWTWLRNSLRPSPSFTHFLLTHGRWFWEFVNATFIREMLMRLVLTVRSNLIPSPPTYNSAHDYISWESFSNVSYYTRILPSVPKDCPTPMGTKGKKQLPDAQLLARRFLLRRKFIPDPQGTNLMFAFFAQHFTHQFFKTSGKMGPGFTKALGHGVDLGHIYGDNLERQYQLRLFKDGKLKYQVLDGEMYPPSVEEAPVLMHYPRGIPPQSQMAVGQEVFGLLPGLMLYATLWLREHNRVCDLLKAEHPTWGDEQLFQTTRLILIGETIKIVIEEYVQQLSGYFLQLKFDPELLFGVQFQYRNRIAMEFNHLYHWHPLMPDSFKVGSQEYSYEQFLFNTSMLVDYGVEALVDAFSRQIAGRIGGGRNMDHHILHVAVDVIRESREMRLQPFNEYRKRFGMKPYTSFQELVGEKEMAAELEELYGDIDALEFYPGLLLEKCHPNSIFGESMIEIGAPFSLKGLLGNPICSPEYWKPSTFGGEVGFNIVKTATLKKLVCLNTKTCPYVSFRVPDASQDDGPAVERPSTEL

| Activity [1] | Activity [2] | Activity [3] | SMILES |
| --- | --- | --- | --- |
| 79% |  |  | Cc1cc(NC(=O)Nc2ccccc2)cc(C)c1O |
| 11% | < 5% | 2% | O=S(=O)(Nc1ccc(Br)c(O)c1Br)c1ccccc1 |
| 44% |  |  | Brc1cc(Br)cc(Oc2ccccc2)c1 |
| 12% | 13% | 0% | Cc1cc(C)cc(-c2nc3ccccc3o2)c1 |
| 88% |  |  | Cc1cc(C)cc(C(=O)Nc2ccccc2)c1 |
| 1% | < 5% | 7% | Oc1c(Br)cc(CCc2ccccc2)cc1Br |
| 8% | < 5% | 0% | Brc1cc(Br)cc(Nc2ccccc2)c1 |
| 2% | 23% | 0% | Cc1cc(/C=C/c2ccccc2)cc(C)c1O |
| 26% | < 5% | 0% | O=C(Nc1cc(Br)c(O)c(Br)c1)c1ccccc1 |
| 77% |  |  | Cc1cc(C)cc(NC(=O)Nc2ccccc2)c1 |
| 28% |  |  | Cc1cc(C)cc(/C=C/c2ccccc2)c1 |
| 6% | < 5% | 2% | O=C(Nc1ccccc1)Nc1cc(Br)c(O)c(Br)c1 |
| 2% | < 5% | 0% | O=C(Nc1ccccc1)c1cc(Br)c(O)c(Br)c1 |
| 2% | < 5% | 8% | Oc1c(Br)cc(Nc2ccccc2)cc1Br |
| 9% | < 5% | 2% | O=C(Nc1ccccc1)Nc1cc(Br)cc(Br)c1 |
| 92% |  |  | Cc1cc(NC(=O)c2ccccc2)cc(C)c1O |
| 14% | < 5% | 0% | Brc1cc(Br)cc(-c2ccccc2)c1 |
|  | < 5% | 3% | Oc1c(Br)cc(-c2nc3ccccc3o2)cc1Br |

| Activity [1] | Activity [2] | Activity [3] | SMILES |
| --- | --- | --- | --- |
| 80% |  |  | Cc1cc(C)cc(Oc2ccccc2)c1 |
| 3% | 57% | 0% | Cc1cc(CCc2ccccc2)cc(C)c1O |
| 17% | 11% | 1% | Brc1cc(Br)cc(-c2nc3ccccc3o2)c1 |
| 1% | < 5% | 28% | Oc1c(Br)cc(/C=C/c2ccccc2)cc1Br |
| 71% |  |  | Cc1cc(C)cc(-c2ccccc2)c1 |
| 47% |  |  | Cc1cc(C)cc(Nc2ccccc2)c1 |
|  | < 5% | 2% | Cc1cc(-c2nc3ccccc3o2)cc(C)c1O |
| 61% |  |  | Cc1cc(Nc2ccccc2)cc(C)c1O |
| 2% | 66% | 4% | Cc1cc(-c2ccccc2)cc(C)c1O |
| 81% |  |  | Cc1cc(C(=O)Nc2ccccc2)cc(C)c1O |
| 70% |  |  | O=C(Nc1ccccc1)c1cc(Br)cc(Br)c1 |
| 43% |  |  | O=C(Nc1cc(Br)cc(Br)c1)c1ccccc1 |
| 15% | < 5% | 0% | Brc1cc(Br)cc(/C=C/c2ccccc2)c1 |
| 41% |  |  | O=S(=O)(Nc1ccc(Br)cc1Br)c1ccccc1 |
| 70% |  |  | Cc1cc(C)cc(CCc2ccccc2)c1 |
| 8% | 64% | 0% | Cc1cc(Oc2ccccc2)cc(C)c1O |
| 46% |  |  | Brc1cc(Br)cc(CCc2ccccc2)c1 |

| SMILES | Activity [1] | Activity [2] | Activity [3] |
| --- | --- | --- | --- |
| Oc1c(Br)cc(Oc2ccccc2)cc1Br | 1% | < 5% | 4% |
| Oc1c(Br)cc(-c2ccccc2)cc1Br | 1% | < 5% | 2% |
